Experimental data as given in patent US20250235543A1, “MODIFIED PROTEINS AND PROTEIN DEGRADERS” (Cullgen (Shanghai), Inc., priority 2021, published 2025).
Where two headings read alike, the source gives them in different places.

Tests used:
CDK4 = molecular target: T1, CDK4 (Homo sapiens, UniProt P11802); test: CDK4 percentage degradation in Calu-1 cells (immunoblotting); format: cell-based; settings: for inhibition at 10 µM: read-out: CDK4 Degradation (10 μM); for inhibition at 0.2 µM: read-out: CDK4 Degradation (200 nM)
T1 construct: endogenous in cells; host or cells: Calu-1
T1 sequence (P11802 2-303 limits assumed): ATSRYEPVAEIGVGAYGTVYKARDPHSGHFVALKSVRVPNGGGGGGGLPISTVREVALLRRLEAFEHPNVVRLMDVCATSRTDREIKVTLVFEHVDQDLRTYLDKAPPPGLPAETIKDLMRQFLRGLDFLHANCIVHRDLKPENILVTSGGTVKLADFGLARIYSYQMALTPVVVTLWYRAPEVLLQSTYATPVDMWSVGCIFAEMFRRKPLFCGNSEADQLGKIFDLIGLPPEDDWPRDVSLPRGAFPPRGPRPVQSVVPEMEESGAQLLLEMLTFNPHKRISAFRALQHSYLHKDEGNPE
T1 sequence (P24385 whole entry partner): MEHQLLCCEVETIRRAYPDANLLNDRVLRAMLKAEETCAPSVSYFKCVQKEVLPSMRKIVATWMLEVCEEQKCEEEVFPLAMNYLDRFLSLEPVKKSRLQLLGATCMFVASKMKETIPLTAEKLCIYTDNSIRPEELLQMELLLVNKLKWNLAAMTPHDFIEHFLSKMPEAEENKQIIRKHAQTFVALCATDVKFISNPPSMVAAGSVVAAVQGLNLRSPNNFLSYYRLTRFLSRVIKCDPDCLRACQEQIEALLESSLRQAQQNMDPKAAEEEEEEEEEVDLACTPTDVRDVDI
T1 sequence (Q16531 2-1140 limits assumed, further chain): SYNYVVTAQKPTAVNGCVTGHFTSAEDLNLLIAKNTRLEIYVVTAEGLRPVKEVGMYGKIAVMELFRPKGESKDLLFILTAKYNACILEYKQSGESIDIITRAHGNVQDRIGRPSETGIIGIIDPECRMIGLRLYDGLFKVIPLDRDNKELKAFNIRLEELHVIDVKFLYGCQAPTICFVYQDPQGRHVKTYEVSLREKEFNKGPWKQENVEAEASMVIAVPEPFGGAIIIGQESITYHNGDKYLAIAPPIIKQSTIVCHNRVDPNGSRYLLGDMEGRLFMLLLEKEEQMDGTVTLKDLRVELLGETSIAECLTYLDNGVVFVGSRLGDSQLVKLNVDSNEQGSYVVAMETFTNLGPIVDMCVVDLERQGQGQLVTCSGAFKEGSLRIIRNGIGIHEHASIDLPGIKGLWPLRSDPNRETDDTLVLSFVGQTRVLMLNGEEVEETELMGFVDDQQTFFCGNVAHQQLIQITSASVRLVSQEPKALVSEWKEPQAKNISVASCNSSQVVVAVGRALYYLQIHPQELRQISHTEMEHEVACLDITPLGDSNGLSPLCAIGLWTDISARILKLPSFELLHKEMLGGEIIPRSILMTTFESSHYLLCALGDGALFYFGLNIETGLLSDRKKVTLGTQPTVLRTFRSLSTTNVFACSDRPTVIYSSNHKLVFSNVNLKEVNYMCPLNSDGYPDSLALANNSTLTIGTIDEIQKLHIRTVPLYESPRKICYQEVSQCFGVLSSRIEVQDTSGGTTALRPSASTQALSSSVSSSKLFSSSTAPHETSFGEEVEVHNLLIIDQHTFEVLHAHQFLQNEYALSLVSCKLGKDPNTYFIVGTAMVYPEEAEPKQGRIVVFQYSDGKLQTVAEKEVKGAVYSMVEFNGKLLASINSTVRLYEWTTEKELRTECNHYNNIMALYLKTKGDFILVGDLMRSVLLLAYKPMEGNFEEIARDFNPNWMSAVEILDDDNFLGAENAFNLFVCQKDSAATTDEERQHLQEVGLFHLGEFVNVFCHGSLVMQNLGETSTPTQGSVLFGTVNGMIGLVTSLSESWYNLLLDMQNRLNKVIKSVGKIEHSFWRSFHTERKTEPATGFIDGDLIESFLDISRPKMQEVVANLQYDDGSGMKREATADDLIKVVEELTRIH
Method in brief: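 CDK4 degradation was measured by immunoblotting. Cells were washed in cold PBS and lysed in RIPA buffer with inhibitors for 30 min at 4° C., then spun at 13,000 rpm to clear. After BCA protein determination, lysates were heated at 99° C. for 5 min in Laemmli buffer, resolved on SDS-PAGE, imaged on a ChemiDoc MP with ECL substrate, and band intensities quantified.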

cyclin D1 = test: Cyclin D1 percentage degradation in Calu-1 cells (immunoblotting); format: cell-based; settings: 16 hours
Method in brief: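 Cyclin D1 degradation was assessed by western blot. Clarified lysates, obtained by RIPA lysis with inhibitors and centrifugation at 13,000 rpm, were normalized by BCA protein assay and separated by SDS-PAGE. Bands were detected with Western ECL Substrate on a Bio-Rad ChemiDoc MP Imaging system and quantified in Image Lab software to derive percentage degradation.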

Row | SMILES | inhibition at 10 µM (CDK4; Calu-1 cells, 16 hours) | CyclinD1 Degradation (10 μM) (cyclin D1) | inhibition at 0.2 µM (CDK4; Calu-1, 16 h) | CyclinD1 Degradation (200 nM) (cyclin D1) | inhibition at 0.2 µM (CDK4; Calu-1 cells, 200 nM, 16 hours)
1 | Cc1nc(NC(=O)c2ccccc2NC(=O)CCCNC(=O)CN2CCN(c3ccc(Nc4ncc(F)c(-c5cc(F)c6nc(C)n(C(C)C)c6c5)n4)nc3)CC2)sc1C [CPD-302, N-(4,5-Dimethylthiazol-2-yl)-2-(4-(2-(4-(6-((5-fluoro-4-(4-fluoro-1-isopropyl-2-methyl-1H-benzo[d]imidazol-6-yl)pyrimidin-2-yl)amino)pyridin-3-yl)piperazin-1-yl)acetamido)butanamido)benzamide] | < 30% | D (protein percentage degradation < 30%) | – | – | –
2 | CC(=O)c1c(C)c2cnc(Nc3ccc(N4CCN(C(=O)CCOCCOCCOCCC(=O)Nc5ccccc5C(=O)Nc5nc(C)c(C)s5)CC4)cn3)nc2n(C2CCCC2)c1=O [CPD-357, 2-(3-(2-(2-(3-(4-(6-((6-Acetyl-8-cyclopentyl-5-methyl-7-oxo-7,8-dihydropyrido[2,3-d]pyrimidin-2-yl)amino)pyridin-3-yl)piperazin-1-yl)-3-oxopropoxy)ethoxy)ethoxy)propanamido)-N-(4,5-dimethylthiazol-2-yl)benzamide] | – | – | 50 to 80% | A (protein percentage degradation >=80%) | –
3 | CC(=O)c1c(C)c2cnc(Nc3ccc(N4CCN(CC(=O)NCCOCCOCCC(=O)Nc5ccccc5C(=O)Nc5nc(C6CCN(C)CC6)c(C)s5)CC4)cn3)nc2n(C2CCCC2)c1=O [CPD-080, 2-(3-(2-(2-(2-(4-(6-((6-Acetyl-8-cyclopentyl-5-methyl-7-oxo-7,8-dihydropyrido[2,3-d]pyrimidin-2-yl)amino)pyridin-3-yl)piperazin-1-yl)acetamido)ethoxy)ethoxy)propanamido)-N-(5-methyl-4-(1-methylpiperidin-4-yl)thiazol-2-yl)benzamide] | – | – | – | D (protein percentage degradation <30%) | < 30%
4 | Cc1nc(NC(=O)c2ccccc2NC(=O)CCCCCNC(=O)CN2CCN(Cc3ccc(Nc4ncc(F)c(-c5cc(F)c6nc(C)n(C(C)C)c6c5)n4)nc3)CC2)sc1C [CPD-276, N-(4,5-Dimethylthiazol-2-yl)-2-(6-(2-(4-((6-((5-fluoro-4-(4-fluoro-1-isopropyl-2-methyl-1H-benzo[d]imidazol-6-yl)pyrimidin-2-yl)amino)pyridin-3-yl)methyl)piperazin-1-yl)acetamido)hexanamido)benzamide] | < 30% | D (protein percentage degradation < 30%) | – | – | –
5 | Cc1nc(NC(=O)c2ccccc2NC(=O)CCOCCOCCNC(=O)CN2CCN(c3ccc(Nc4ncc5cc(C(=O)N(C)C)n(C6CCCC6)c5n4)nc3)CC2)sc1C [CPD-295, 7-Cyclopentyl-2-((5-(4-(2-((2-(2-(3-((2-((4,5-dimethylthiazol-2-yl)carbamoyl)phenyl)amino)-3-oxopropoxy)ethoxy)ethyl)amino)-2-oxoethyl)piperazin-1-yl)pyridin-2-yl)amino)-N,N-dimethyl-7H-pyrrolo[2,3-d]pyrimidine-6-carboxamide] | 50 to 80% | A (protein percentage degradation >= 80%) | – | – | –
6 | CC(=O)c1c(C)c2cnc(Nc3ccc(N4CCN(C(=O)CCOCCOCCOCCOCCOCCC(=O)Nc5ccccc5C(=O)Nc5nc(C)c(C)s5)CC4)cn3)nc2n(C2CCCC2)c1=O [CPD-163, 19-(4-(6-((6-Acetyl-8-cyclopentyl-5-methyl-7-oxo-7,8-dihydropyrido[2,3-d]pyrimidin-2-yl)amino)pyridin-3-yl)piperazin-1-yl)-N-(2-((4,5-dimethylthiazol-2-yl)carbamoyl)phenyl)-19-oxo-4,7,10,13,16-pentaoxanonadecanamide] | – | – | 50 to 80% | A (protein percentage degradation >=80%) | –
7 | CC(=O)c1c(C)c2cnc(Nc3ccc(N4CCN(C(=O)CCCCCNc5cccc(C(=O)Nc6nc(C)c(C)s6)c5C)CC4)cn3)nc2n(C2CCCC2)c1=O [CPD-137, 3-((6-(4-(6-((6-Acetyl-8-cyclopentyl-5-methyl-7-oxo-7,8-dihydropyrido[2,3-d]pyrimidin-2-yl)amino)pyridin-3-yl)piperazin-1-yl)-6-oxohexyl)amino)-N-(4,5-dimethylthiazol-2-yl)-2-methylbenzamide] | – | – | < 30% | D (protein percentage degradation <30%) | –
8 | CC(=O)c1c(C)c2cnc(Nc3ccc(N4CCN(CC(=O)NCCOCCOCCC(=O)Nc5ccccc5C(=O)Nc5cnc(C)cn5)CC4)cn3)nc2n(C2CCCC2)c1=O [CPD-054, 2-(3-(2-(2-(2-(4-(6-((6-Acetyl-8-cyclopentyl-5-methyl-7-oxo-7,8-dihydropyrido[2,3-d]pyrimidin-2-yl)amino)pyridin-3-yl)piperazin-1-yl)acetamido)ethoxy)ethoxy)propanamido)-N-(5-methylpyrazin-2-yl)benzamide] | – | – | – | A (protein percentage degradation >=80%) | 50 to 80%
9 | CC(=O)c1c(C)c2cnc(Nc3ccc(N4CCN(CC(=O)NCCCCNc5ccc(C)c(C(=O)Nc6nc(C)c(C)s6)c5)CC4)cn3)nc2n(C2CCCC2)c1=O [CPD-088, 5-((4-(2-(4-(6-((6-Acetyl-8-cyclopentyl-5-methyl-7-oxo-7,8-dihydropyrido[2,3-d]pyrimidin-2-yl)amino)pyridin-3-yl)piperazin-1-yl)acetamido)butyl)amino)-N-(4,5-dimethylthiazol-2-yl)-2-methylbenzamide] | – | – | – | D (protein percentage degradation <30%) | < 30%
10 | CC(=O)c1c(C)c2cnc(Nc3ccc(N4CCN(CC(=O)NCCOCCOCCC(=O)Nc5ccccc5C(=O)Nc5cc(C6CC6)n(C)n5)CC4)cn3)nc2n(C2CCCC2)c1=O [CPD-079, 2-(3-(2-(2-(2-(4-(6-((6-Acetyl-8-cyclopentyl-5-methyl-7-oxo-7,8-dihydropyrido[2,3-d]pyrimidin-2-yl)amino)pyridin-3-yl)piperazin-1-yl)acetamido)ethoxy)ethoxy)propanamido)-N-(5-cyclopropyl-1-methyl-1H-pyrazol-3-yl)benzamide] | – | – | – | D (protein percentage degradation <30%) | < 30%
11 | CC(=O)c1c(C)c2cnc(Nc3ccc(N4CCN(CC(=O)NCCOCCOCCOCCOCCOCCNc5ccc(C(=O)Nc6ccc(C)cc6)c(C)c5)CC4)cn3)nc2n(C2CCCC2)c1=O [CPD-025, 4-((1-(4-(6-((6-Acetyl-8-cyclopentyl-5-methyl-7-oxo-7,8-dihydropyrido[2,3-d]pyrimidin-2-yl)amino)pyridin-3-yl)piperazin-1-yl)-2-oxo-6,9,12,15,18-pentaoxa-3-azaicosan-20-yl)amino)-2-methyl-N-(p-tolyl)benzamide] | – | – | < 30% | D (protein percentage degradation <30%) | –
12 | Cc1nc(NC(=O)c2ccccc2NC(=O)CCOCCOCCOCCOCCNC(=O)CN2CCN(c3ccc(Nc4ncc5cc(C(=O)N(C)C)n(C6CCCC6)c5n4)nc3)CC2)sc1C [CPD-297, 7-Cyclopentyl-2-((5-(4-(18-((2-((4,5-dimethylthiazol-2-yl)carbamoyl)phenyl)amino)-2,18-dioxo-6,9,12,15-tetraoxa-3-azaoctadecyl)piperazin-1-yl)pyridin-2-yl)amino)-N,N-dimethyl-7H-pyrrolo[2,3-d]pyrimidine-6-carboxamide] | 50 to 80% | A (protein percentage degradation >= 80%) | – | – | –
13 | Cc1nc(NC(=O)c2ccccc2NC(=O)CCOCCOCCOCCOCCOCCNC(=O)CN2CCN(Cc3ccc(Nc4ncc(F)c(-c5cc(F)c6nc(C)n(C(C)C)c6c5)n4)nc3)CC2)sc1C [CPD-284, N-(4,5-Dimethylthiazol-2-yl)-2-(1-(4-((6-((5-fluoro-4-(4-fluoro-1-isopropyl-2-methyl-1H-benzo[d]imidazol-6-yl)pyrimidin-2-yl)amino)pyridin-3-yl)methyl)piperazin-1-yl)-2-oxo-6,9,12,15,18-pentaoxa-3-azahenicosan-21-amido)benzamide] | < 30% | D (protein percentage degradation < 30%) | – | – | –
14 | CC(=O)c1c(C)c2cnc(Nc3ccc(N4CCN(CC(=O)NCCOCCOCCC(=O)Nc5cc(F)ccc5C(=O)Nc5nc(C)c(C)s5)CC4)cn3)nc2n(C2CCCC2)c1=O [CPD-143, 2-(3-(2-(2-(2-(4-(6-((6-Acetyl-8-cyclopentyl-5-methyl-7-oxo-7,8-dihydropyrido[2,3-d]pyrimidin-2-yl)amino)pyridin-3-yl)piperazin-1-yl)acetamido)ethoxy)ethoxy)propanamido)-N-(4,5-dimethylthiazol-2-yl)-4-fluorobenzamide] | – | – | – | A (protein percentage degradation >=80%) | > 80%
15 | Cc1nc(NC(=O)c2ccccc2NC(=O)CCOCCOCCNC(=O)CN2CCN(c3ccc(Nc4ncc5cc6n(c5n4)C4(CCCCC4)CNC6=O)nc3)CC2)sc1C [CPD-323, N-(4,5-Dimethylthiazol-2-yl)-2-(3-(2-(2-(2-(4-(6-((6′-oxo-7′,8′-dihydro-6′H-spiro[cyclohexane-1,9′-pyrazino[1′,2′:1,5]pyrrolo[2,3-d]pyrimidin]-2′-yl)amino)pyridin-3-yl)piperazin-1-yl)acetamido)ethoxy)ethoxy)propanamido)benzamide] | 50 to 80% | A (protein percentage degradation >= 80%) | – | – | –
16 | CC(=O)c1c(C)c2cnc(Nc3ccc(N4CCN(C(=O)CCC(=O)Nc5ccccc5C(=O)Nc5nc(C)c(C)s5)CC4)cn3)nc2n(C2CCCC2)c1=O [CPD-153, 2-(4-(4-(6-((6-Acetyl-8-cyclopentyl-5-methyl-7-oxo-7,8-dihydropyrido[2,3-d]pyrimidin-2-yl)amino)pyridin-3-yl)piperazin-1-yl)-4-oxobutanamido)-N-(4,5-dimethylthiazol-2-yl)benzamide] | – | – | < 30% | D (protein percentage degradation <30%) | –
